Experimental data as given in patent US12318393B2, “Modulators of orphan nuclear receptors for NASH and other metabolic disorders” (Emory University, priority 2018, dated 2025).

Tested on: C57BL/6 mice fed with atherogenic diet
Assay: Atherogenic (fibrotic) diet mouse model: liver damage, inflammation, fibrosis
Assay type: in vivo
Description: Male C57BL/6J mice, 7 to 8 weeks old, were housed randomly in standard cages and were fed a HFD, or atherogenic diet (consisting 1% Chol and 0.5% cholic acid, see also Table 3). All mice had free access to water during the experimental period. During the feeding period body weight was monitored every 3 days. In the HFD experiment, after 4 or 6 weeks, the resultant obese mice were treated with antagomiR-122 ([…] once a week for 3 weeks), or i.p. injected with Compound 1 (RORα agonist, 7.5 mg/kg twice a week for 3 weeks; or 15 mg/kg 3 times a week for 3 weeks). The obese control (HFD) group was administered only saline with DMSO and antagomiR-control. After 3 weeks of treatment mice were sacrificed and livers were taken for RNA-seq analysis. Livers, white adipose, and skeletal muscle tissues were frozen in liquid nitrogen or in optimum cutting temperature embedded frozen blocks, for further RNA and histologic analysis. In the atherogenic diet experiment mice were treated with 15 mg/kg Compound 1 after 3 weeks with the diet. After 3.5 weeks of treatment, mice were sacrificed, and the livers were frozen in liquid nitrogen or in optimum cutting temperature embedded frozen blocks. Plasma was collected from atherogenic diet-fed mice and saved in −20° C. for ALT and AST analysis using the Reflotron® Analyzer and test-strips (Roche).
Livers and adipose samples were placed in 4% buffered formaldehyde for 24 hours, followed by 80% ethanol and then embedded in paraffin blocks. Liver and adipose tissues were cut into […], deparaffinized with xylene and hydrated through graded ethanol. For the H&E staining, tissue sections were stained with hematoxylin (Emmonya Biotech Ltd.) and eosin (Leica, Surgipath). Liver macrophages were stained using rat anti-mouse F4/80 antigen (Serotec), followed by anti-Rat HRP (Histofine) and developed with a DAB kit (Zymed). Liver sections were stained for Masson Trichrome (Sigma). Liver CD3+ T cells were stained using Rat anti human-CD3-antibody (Bio-Rad), followed by anti-Rat HRP (Histofine) and developed with AEC (Invitrogen). α-SMA positive cells were stained using mouse anti-Human smooth Muscle Actin antibody (Dako), followed by anti-mouse HRP (Dako) and developed with DAB. The percentage area stained positively per high power field was calculated by ImageJ Software in 5-10 random fields.
Experimental design: C57BL/6 mice fed for 3 weeks with atherogenic diet (to induce fibrosis) and injected with 15 mg/kg Compound 1 (or saline+DMSO) 3 times a week for 3.5 week (n=8).
Experimental design: C57BL/6 mice fed for 3 weeks with atherogenic diet (to induce fibrosis) and injected with 15 mg/kg Compound 1 (or saline+DMSO) 3 times a week for 3.5 week (n=8). Representative microphotographs of H&E, CD3, and F4/80-stained livers taken from saline or Compound 1-treated mice are shown in FIG. 12A, where scale bars represent 10 μm. The graphs shown in FIG. 12B show quantification of positively-stained F4/80 areas using ImageJ.

[1] = 15 mg/kg 3 times a week for 3.5 weeks
[2] = liver, 15 mg/kg 3 times a week for 3.5 weeks
[3] = liver, 15 mg/kg 3 times a week for 3.5 weeks, vs untreated

SMILES: O=C1Nc2cc(C(=O)N3CCC(Cc4ccccc4)CC3)ccc2Nc2ccccc21 [Compound 1]
- biomarkers of inflammation (Tgfb2 and TgfbR2) and fibrosis (Acta1, Col1A1 and Col3A1), liver mRNA [1]: reducing
- biomarkers of liver injury, AST and ALT (plasma) [1]: significantly improved
- mature miR-122 in tissue and in plasma [1]: increased
- liver vasculature (CD34 staining) (data not shown): no effect
- T-cell density by CD3 staining [2]: decreased
- immune infiltrate by H&E staining [2]: decreased
- levels of myeloid infiltrate by F4/80 staining [2]: decreased
- reduction of fibrotic areas, Masson Trichrome (M.T) [3]: 5 fold
- reduction of fibrotic areas, α-SMA [3]: 7 fold
